Values of other authors, collected in patent US20230203322A1, “NON-ABLATIVE MULTI-LAYER COATINGS FOR BOAT PROPELLERS THAT PREVENT WATER-DERIVED DAMAGE, CORROSION, AND DETERIORATION FROM BIOLOGICAL CHEMICAL PROCESSES” (priority 2021, published 2023).

Columns and labels:
barnacles = details: copper release
[1] = tested on: biofouling animal organisms

In the case of [Cu] [copper], the “minimal effective rate known to be effective for eradicating barnacles” value (barnacles) is given as 4 × 10^-6 micrograms per cm^2 per day.
For [O]=[Zn] [zinc oxide], the “effect on biofouling animal organisms” value ([1]; by itself) is listed as “only a weak effect” and the “synergistic enhancement of the biofouling anti-proliferating effect of copper and its alloys and salts” value ([1]; used in combination with the copper containing-substance) is listed as “up to 200 times”.
